Assay results from paper PMC6091977, “The permeation mechanism of organic cations through a CNG mimic channel” (PLoS Computational Biology, 2018).

What was measured:
[1] = target: T1, CNGA1 channel (bovine CNGA1, bCNGA1) (Bos taurus, UniProt Q00194); test: cell-based
T1 sequence (Q00194 1-690): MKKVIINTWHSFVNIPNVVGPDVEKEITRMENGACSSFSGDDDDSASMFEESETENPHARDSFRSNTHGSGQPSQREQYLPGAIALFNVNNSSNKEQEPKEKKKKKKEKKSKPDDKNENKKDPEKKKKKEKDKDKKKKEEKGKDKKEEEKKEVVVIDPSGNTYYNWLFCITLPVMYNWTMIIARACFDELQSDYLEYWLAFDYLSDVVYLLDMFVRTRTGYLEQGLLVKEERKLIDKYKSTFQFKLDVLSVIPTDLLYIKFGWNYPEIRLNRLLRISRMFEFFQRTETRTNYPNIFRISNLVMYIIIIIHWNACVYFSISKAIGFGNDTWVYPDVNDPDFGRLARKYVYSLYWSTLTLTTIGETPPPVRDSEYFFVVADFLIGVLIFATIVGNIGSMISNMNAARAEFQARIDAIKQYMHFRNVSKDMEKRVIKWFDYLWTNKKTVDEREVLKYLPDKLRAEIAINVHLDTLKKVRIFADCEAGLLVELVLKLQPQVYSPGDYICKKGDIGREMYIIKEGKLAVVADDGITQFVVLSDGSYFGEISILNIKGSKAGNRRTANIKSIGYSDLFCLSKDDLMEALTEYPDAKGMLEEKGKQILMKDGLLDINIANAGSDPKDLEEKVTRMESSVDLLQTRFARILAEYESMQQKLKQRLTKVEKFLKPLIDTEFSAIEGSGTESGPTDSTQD

NaK2CNG-E chimera = test: crystal structure; sitting drop vapor diffusion at 20°C, 40-44% MPD, 100 mM MES pH 6.5, 25 mM glycine; protein purified in DM with DMA·HCl; space group P222_(1); tetramers AABB and CCDD built by two-fold crystallographic symmetry
[2] = target: T1, CNGA1 channel (bovine CNGA1, bCNGA1); test: excised-patch voltage clamp; current activation; format: biochemical; design: full-length CNGA1 expressed alone from cRNA in Xenopus laevis oocytes; excised patches; conditions: agonist at 1 mM; DMA as charge carrier; pH 7.4

`CNC` [DMA, dimethylammonium] showed a Kd [1] of 52 mM.

For NaK2CNG-E chimera, the stoichiometry N (NaK2CNG-E chimera) was 4.

For `Nc1nc2c(ncn2[C@@H]2O[C@@H]3COP(=O)(O)O[C@H]3[C@H]2O)c(=O)[nH]1` [cGMP], the “excised-patch voltage clamp; current activation” value [2] was “The cGMP activated current was measured as the difference between the current recorded in the presence”.
